In brackets after ≈: the same amount, converted by molar mass. Entries after “also recorded” stand apart in the source; their conditions may differ.
How the values were obtained:
H460 cells = test: Cell proliferation (Cell Titer Glo), H460; type: cell-based, human
Experimental: (§1) The cell lines H460, Calu6, SW1573, H1703, H292, H358, HCT-116, HT-29, FET, GEO, SW480, Colo205 CBS, BxPC3, HPAC, CFPAC, MiaPaca-2, Panc1, MDA-MB-468, BT-20, MDA-MB-435 H441, H322, A1165, Igrov-1, Ovcar-3, CA-OV-3, MDAH2774, SW626, SKOV-3, Cal-27, RPMI 2650, and MDA-MB-231 were grown in media as prescribed by the ATCC, containing 10% FCS. Hsc-2, Hsc-4 and OVK-18 were obtained from the Riken Cell Bank and were cultured according to the Riken Cell Bank recommended conditions.

H292 cells = test: Cell proliferation (Cell Titer Glo), H292; type: cell-based, human; conditions: 10 μM erlotinib, 72 hours; maximal growth inhibition greater than 50% = high sensitivity
Experimental: as §1

BxPC3 cells = test: Cell proliferation (Cell Titer Glo), BxPC3; type: cell-based, human; conditions: 10 μM erlotinib, 72 hours; maximal growth inhibition greater than 50% = high sensitivity
Experimental: as §1

[1] = system: phosphorylation of S6 (readout for the activity of mTOR); test: Western blot of S6 phosphorylation in tumor cell lines; type: cell-based, human; conditions: 2 hours
Experimental: Preparation of Protein Lysates and Western Blotting:
With the exception of total ErbB3 (obtained from Santa Cruz Biotechnology, Inc., Santa Cruz, Calif.), all antibodies were obtained from Cell Signaling Technology, Inc. (Danvers, Mass.). For analysis of erlotinib's effect on the phosphorylation of downstream signaling proteins, cell lines were grown to approximately 70% confluency, at which time erlotinib was added at the indicated concentration, and cells were incubated at 37° C. for two hours. Where indicated, 10 ng/ml EGF ligand was added for 5 minutes. The media was removed, cells were washed two times with PBS, and cells were lysed as previously described.

Calu-6 NSCLC tumor cells = test: Calu6 xenograft model; type: in vivo, mice; conditions: day 19; Tarceva 100 mg/kg daily oral, or rapamycin 4 mg/kg i.p. day 1, 8, 15
Excerpt: Female CD-1 nu/nu mice (Charles River Laboratories, Wilmington, Mass.) were implanted with harvested Calu-6 NSCLC tumor cells in a single subcutaneous site on the flank of the mice in the axillary region. Tumors were allowed to grow to 200+50 mm^3, at which time the animals were sorted into treatment groups (see below) of 8 animals per group, having approximately equal body weight (+/−1 g) within a group, and tattooed on the tail for permanent identification. Tumor volumes and body weights were determined twice weekly. The tumor volume was determined by measuring in two directions with vernier calipers and calculated using the formula: Tumor volume=(length×width^2)/2. The data were plotted as the % change in mean values of tumor volume and body weight for each group. The tumor growth inhibition (% TGI) was determined as % TGI=100(1−Wt/Wc): where Wt is the median tumor volume of the treated group at time x and We is the median tumor volume of the control group at time x. Tarceva was dosed in a 6% Captisol (CyDex, Inc) in WFI (Water for Injection) solution and all control animals were dosed with an equal volume of the vehicle. Tarceva animals were dosed by oral gavage once a day for 18 days and the % TGI measured on day 19. Rapamycin was dosed in 4% ethanol/5% PEG400/5% Tween 80 in WFI. […]

[2] = Solubility limit of erlotinib; type: physicochemical
three ovarian cell lines = test: Apoptosis (Caspase 3/7 Glo), ovarian cell lines; type: cell-based, human; conditions: 20 μM Compound A or 10 μM erlotinib
Experimental: as §1

[3] = system: one ovarian and one HNSCC cell line; test: Apoptosis (Caspase 3/7 Glo), one ovarian and one HNSCC cell line; type: cell-based, human
Experimental: as §1

Calu6 cells = conditions: 10 μM erlotinib, 72 hours; maximal growth inhibition greater than 50% = high sensitivity
Experimental: (§2) Measurement of Cell Proliferation: Cell proliferation was determined using the Cell Titer Glo assay (Promega Corporation, Madison, Wisc.). Cell lines were seeded at a density of 3000 cells per well in a 96-well plate. 24 hours after plating cells were dosed with varying concentrations of drug, either as a single agent or in combination. The signal for Cell Titer Glo was determined 72 hours after dosing.
(§3) Analysis of Additivity and Synergy: The Bliss additivism model was used to classify the effect of combining rapamycin and erlotinib as additive, synergistic, or antagonistic. A theoretical curve was calculated for combined inhibition using the equation: Ebliss=EA+EB−EA*EB, where EA and EB are the fractional inhibitions obtained by drug A alone and drug B alone at specific concentrations. […] If the experimentally measured fractional inhibition is less than Ebliss the combination was said to be synergistic. If the experimentally measured fractional inhibition is greater than Ebliss the combination was said to be antagonistic. For dose response curves, the Bliss additivity value was calculated for varying doses of drug A when combined with a constant dose of drug B. This allowed an assessment as to whether drug B affected the potency of drug A or shifted its intrinsic activity. All plots were generated using PRISM® software (Graphpad Software, San Diego, Calif.).

HCT-116 cells = conditions: 10 μM erlotinib, 72 hours; maximal growth inhibition greater than 50% = high sensitivity
Experimental: as §2, §3

H358 cells = conditions: 10 μM erlotinib, 72 hours; maximal growth inhibition greater than 50% = high sensitivity
Experimental: as §2, §3

[4] = system: 22 cell lines derived from NSCLC, colon, pancreatic, and breast tumors; test: cells; conditions: Homo sapiens, read-out: IC50 value
Experimental: as §2, §3

pAkt (S473) = pAkt (S473) in cancer cell lines; type: cell-based
tumor cells = test: Anti-proliferative activity across tumor cell lines; type: cell-based

Row | Structure (SMILES) | sensitivity to growth inhibition by erlotinib (H460 cells; 10 μM erlotinib, 72 hours, maximal growth inhibition greater than 50% = high sensitivity) | sensitivity to growth inhibition by erlotinib (H292 cells) | sensitivity to growth inhibition by erlotinib (BxPC3 cells) | down-regulation of phosphorylation of S6 ([1]; relatively insensitive cell lines that have undergone EMT (H460, Calu6, HCT-116)) | down-regulation of phosphorylation of S6 ([1]; three sensitive epithelial cell lines (H292, H358, BxPC3)) | reduction in tumor growth as single agent (Calu-6 NSCLC tumor cells) | solubility [2] [µM] | apoptosis relative to DMSO treated cells, single agent (three ovarian cell lines) | apoptosis relative to DMSO treated cells, single agent [3] | sensitivity to growth inhibition by erlotinib (Calu6 cells) | sensitivity to growth inhibition by erlotinib (HCT-116 cells) | sensitivity to growth inhibition by erlotinib (H358 cells) | IC50 [4] [µM] | Emax (H460 cells; Homo sapiens, NCI-H460, rapamycin without erlotinib, read-out: maximal efficacy (growth inhibition)) [%] | IC50 (H460 cells; Homo sapiens, NCI-H460, rapamycin without erlotinib, read-out: potency (growth inhibition)) [nM] | cancer cell lines in which pAkt (S473) is inhibited (pAkt (S473)) [%] | cell lines in which treatment increases pAkt (S473) (pAkt (S473)) [%] | cell lines in a given tumor type that are insensitive (tumor cells)
1 | C#Cc1cccc(Nc2ncnc3cc(OCCOC)c(OCCOC)cc23)c1 [erlotinib, [6,7-bis(2-methoxyethoxy)-4-quinazolin-4-yl]-(3-ethynylphenyl) amine] | relatively insensitive | most sensitive | most sensitive | less pronounced down-regulation | efficiently down-regulate | no statistically significant reduction; also recorded: Neither rapamycin or erlotinib showed significant reduction | 10 (≈ 3.93 µg/mL) | increased apoptosis | modest increase | relatively insensitive | relatively insensitive | most sensitive | > 10 |  |  |  |  | 
2 | CO[C@H]1C[C@@H]2CC[C@@H](C)[C@@](O)(O2)C(=O)C(=O)N2CCCC[C@H]2C(=O)O[C@H]([C@H](C)C[C@@H]2CC[C@@H](O)[C@H](OC)C2)CC(=O)[C@H](C)/C=C(\C)[C@@H](O)[C@@H](OC)C(=O)[C@H](C)C[C@H](C)/C=C/C=C/C=C/1C [rapamycin] |  |  |  |  |  |  |  |  |  |  |  |  |  | 34 | 0.267 | ~20 | ~65 | approximately 50%
